Experimental findings from article PMC13168289, “Potent acridone antimalarial against all three life stages of Plasmodium” (Nature Communications, 2026) are described below.

Series [1] in a line: 7-day repeat dose toxicology study. The format is in vivo, Sprague Dawley rats. Particulars: 25, 100, 400 mg/kg daily oral for 7 days. Here is the method:
In vivo toxicology and TK studies in rats were performed at SRI International, using the well-established methods[83]–[85]. Rats were housed in microisolator cages with hardwood chip bedding (Sani-Chips; Envigo Teklad) and maintained on a 12 h light/dark cycle. Environmental conditions were controlled at 20–26 °C (68–79 °F) with 30–70% relative humidity. […] Male and female Sprague Dawley outbred rats were randomly assigned to treatment and control groups using a simple randomization procedure to ensure a balanced distribution of baseline weights across all cohorts. […] For TK studies, blood was collected from animals at 6 time points post dose on Day 1 (0.5, 1, 2, 4, 8, and 24 h) and on Day 7 (0.5, 2, 8, 24, 48, and 96 h). Drug levels were determined in collected plasma samples using bioanalytical method developed at SRI. The plasma drug level data were analyzed using Phoenix WinNonlin (version 8.3) software to perform noncompartmental data analysis.

In series [2] the test system is P. falciparum NF54 gametocytes. In words: sexual blood-stage gametocyte assay. The format is cell-based, Plasmodium falciparum. Particulars: Days 5 to 7, read Day 14. As to the method:
P. falciparum NF54 was used to generate gametocytes. The erythrocytic stage of the parasite was cultured following standard laboratory protocols. Gametocyte production was carried out as described by Miura et al[34]. […] Cultures were maintained in washed human O^+ red blood cells at a final hematocrit of 2%[76]. For gametocyte cultures, parasites were induced using serum-free human media. Gametocyte cultures were maintained in washed human O^+ red blood cells at a final hematocrit of 5%. […] All cultures were maintained at 37 °C in a Billups chamber under a gas mixture of 90% N2, 5% CO2, and 5% O2, with media changes daily. […] DMSO diluted in gametocyte media was used as the control. […] Gametocytemia was assessed on Day 14 post-induction using blood smears stained with the Hema 3^TM Manual Staining System (Fisher) and analyzed by light microscopy.

For series [3], the system named is normal and G6PD-deficient RBCs. In words: eryptosis assay (annexin-V binding, ROS, forward scatter). The series is classed as cell-based, human. The following applies: 48 h incubation. Here is the method:
In vitro evaluation of eryptosis as a marker for induced hemolytic toxicity was performed using de-identified human blood samples obtained from the Clinical Trial Center at WRAIR, using established methods[55],[81],[82]. Fresh Li-heparin-anticoagulated blood samples was centrifuged and the platelet and leukocyte-containing supernatant was removed. […] Flow cytometry was employed to estimate stimulators of eryptosis: phosphatidylserine exposure at the cell surface from annexin-V-binding, reactive oxygen species (ROS) formation from 2′,7′-dichlorodihydrofluorescein diacetate (DCFDA) dependent fluorescence, and cell volume from forward scatter. […]
After incubation under the respective experimental condition, cell suspension was washed in Ringer solution containing CaCl2 and then stained with Annexin-V-FITC at 37 °C for 15 min under protection from light. The annexin-V-abundance at the erythrocyte surface was subsequently determined on a FACS Calibur. Annexin-V-binding was measured at an excitation wavelength of 488 nm and an emission wavelength of 530 nm. […]
Oxidative stress was determined utilizing DCFDA. […] The DCFDA-loaded erythrocytes were resuspended in Ringer solution and ROS-dependent fluorescence intensity was measured at an excitation wavelength of 488 nm and an emission wavelength of 530 nm on a FACS Calibur. Subsequently, the geomean of the DCFDA dependent fluorescence was determined. […]

Series [4] in a line: cytotoxicity against HepG2 cells. The series is classed as cell-based. The following applies: human, HepG2 cells; read-out: inhibition IC50 vs HepG2. Here is the method:
Cytotoxicity was evaluated in human HepG2 liver cells, using an MTT assay. Briefly, HepG2 cells were cultured in complete Dulbecco’s modified Eagle’s medium (DMEM; Gibco-Invitrogen, No. 11995-065) prepared by supplementing DMEM with 10% heat inactivated FBS (Gibco-Invitrogen, No. 16000-036), 100 units/mL penicillin, and 100 µg/mL streptomycin. Cell viability was assessed using trypan blue. Ninety-six-well plates were seeded with 2 × 10^4 cells per well and incubated at 37 °C overnight in a humidified 5% CO2 atmosphere. Test compound plates were prepared with an INTEGRA assist plus station and 96-well plates containing 11 duplicate 2-fold serial dilutions of test compound suspended in DMSO. The diluted test compound was then added to the corresponding well preseeded with HepG2 cells. […] After incubation, 20 µL of a 0.1 mg/mL solution of resazurin diluted in PBS was added to each well, and all plates were subsequently incubated for 3–4 h in an incubator. Absorbance was determined with the Molecular Devices SpectraMax plate reader. Three independent experiments, each in duplicate, were performed, and the IC50 values were determined using GraphPad Prism software (Version 10) using the non-linear regression equation (sigmoidal dose-response, variable slope).

In the case of `O=c1c2ccc(Oc3ccc(OC(F)(F)F)cc3)cc2[nH]c2cc(Cl)cc(F)c12` [T111], in series [1], the tolerability entry is “well tolerated, albeit with minor clinical signs”. The “inhibition of formation of stage V gametocytes” value in series [2] (1 µM) was 75%; in series [2] (10 µM) it was 93%. The “eryptosis as marker of hemolytic toxicity” value in series [3] was “did not show the toxicity seen with TQ”.
On to `O=C1C(O)=C([C@H]2CC[C@H](c3ccc(Cl)cc3)CC2)C(=O)c2ccccc21` [ATV, atovaquone], for which the IC50 at 24 h in series [4] worked out at 61.2 µM.
